The values that follow come from patent US7138428B2, “Compounds isolated from gamboge resin having activity in inhibiting the growth of tumor/cancer cells and pharmaceutical compositions comprising the same” (Taiwan Sunpan Biotechnology Development Company, Ltd., priority 2004, dated 2006).

Bounds are passed on as bounds.

The subject of one data set is HepG2 (liver cancer). The data set is described as follows: cells. As to conditions: for IC50 (50% cell growth inhibition concentration) / LC50 (50% cell destroying lethal concentration): HepG2. The source says:
(§1) The cancer cell growth inhibition test was primarily used to detect the effect of a candidate drug on cancer cell proliferation. The working principle involved therein is the ability of viable cells to shift alamarBlue (Biosource, USA) from its originally non-fluorescent oxidized state to a reduced form (fluorescent, red) having fluorescence via metabolic reaction. According to the fluorescent data result generated by the alamarBlue reagent thus obtained, the proliferation of the viable cells and cell activity can be quantified for detection.
(§2) In this experiment, the assay concentrations of the candidate drug were set to be 0.01, 0.1, 1, 10, and 100 μg/ml, and the following cell lines were used: 6 human cancer cells MCF-7 (breast cancer), HT-29 (colon cancer), HL-60 (leukemia), HepG2 (liver cancer), A549 (lung cancer), and U937 (lymphoma cancer), and a normal human umbilical venal epithelial cell (HUVEC).
(§3) In order to further understand the bioactivity of the products TSB-0 to TSB-8 of this invention when they are used in combination, mixture formulations TSB-9, TSB-10, TSB-11, TSB-12 and TSB-13 were prepared according to Table 4 below.

The subject of another data set is MCF-7 (breast cancer). Briefly: cells. The note with it: for IC50 (50% cell growth inhibition concentration) / LC50 (50% cell destroying lethal concentration): MCF-7.
Description: as §1, §2, §3

The next data set concerns A549 (lung cancer). Briefly: cells. As to conditions: for IC50 (50% cell growth inhibition concentration) / LC50 (50% cell destroying lethal concentration): A549.
Description: as §1, §2, §3

The next data set relates to U937 (lymphoma cancer). Briefly: cells. The note with it: for IC50 (50% cell growth inhibition concentration) / LC50 (50% cell destroying lethal concentration): U937.
Description: as §1, §2, §3

Another data set deals with HL-60 (leukemia). The data set is described as follows: cells. The note with it: for IC50 (50% cell growth inhibition concentration) / LC50 (50% cell destroying lethal concentration): HL-60.
Description: as §1, §2, §3

The next data set concerns HT-29 (colon cancer). Briefly: cells. The note with it: for IC50 (50% cell growth inhibition concentration) / LC50 (50% cell destroying lethal concentration): HT-29.
Description: as §1, §2, §3

Data set [1] deals with normal human umbilical venal epithelial cell (HUVEC).
Description: as §1, §2, §3

The subject of a further data set is tumor/cancer cells. Briefly: in vitro anti-cancer tests, overall statements. In kind it is cell-based, human. As to conditions: summary of in vitro results.
Data set [2] is described as follows: body weights of tumor-bearing test animals. The note with it: 2 mg/kg × 5. It counts as in vivo, mice. The protocol:
Mixture formulation TSB-9 was further subjected to an animal test, in which female mice (6–8 weeks old, weighing 20–22 grams) originally from C.B-17/Icr background and having Severe Combined Immune Deficiency (SCID) were used.
Human breast cancer cells MCF-7 (ATCC HTB-22) (1×10^7 cells/0.2 ml) were implanted subcutaneously into the dorsal side of the mice, and 50 μg/mouse of estradiol benzoate (Sigma, USA) was injected subcutaneously into the mice weekly as supplement for a total of 4 weeks. When the tumor growth reached ≧5 mm in diameter (that very day was denoted as day 1), tumor-bearing nude mice were randomly divided into 4 groups (6 mice in each group).
Mixture formulation TSB-9 was dissolved in 10% DMSO, and was administered orally to the mice every day at two dosages 40 mg/kg and 80 mg/kg, respectively, for a total of 21 consecutive days. […] This treatment group served as a positive control.
Measurements were taken once every 4 days during the experiment periods, and were recorded.

With `CC(C)=CCc1c(O)cc(O)c2c(=O)c3cc4c(c(O)c3oc12)OC(C)(C)C=C4` [TSB-4, 7,9,12-trihydroxy-2,2-dimethyl-10-(3-methyl-but-2-enyl)-2H-pyrano[3,2-b]xanthen-6-one], the CC50 in the data set with HepG2 (liver cancer) (Homo sapiens, HepG2, read-out: LC50 (50% cell destroying lethal concentration)) is 24 µg/mL; in the data set with MCF-7 (breast cancer) (Homo sapiens, MCF7, read-out: LC50 (50% cell destroying lethal concentration)) it was 40 µg/mL; in the data set on A549 (lung cancer) (Homo sapiens, A549, read-out: LC50 (50% cell destroying lethal concentration)), 21 µg/mL; in the data set with U937 (lymphoma cancer) (Homo sapiens, U-937, read-out: LC50 (50% cell destroying lethal concentration)), 28 µg/mL; in the data set on HL-60 (leukemia) (Homo sapiens, HL-60, read-out: LC50 (50% cell destroying lethal concentration)) it was 42 µg/mL; in the data set on HT-29 (colon cancer) (Homo sapiens, HT-29, read-out: LC50 (50% cell destroying lethal concentration)), 59 µg/mL. Besides, the “LC50 (50% cell destroying lethal concentration)” value in data set [1] is 21 µg/mL.

`CC(C)=CCc1c2c(c(O)c3c1O[C@]14C(=C[C@@H]5C[C@H]1C(C)(C)O[C@@]4(C/C=C(/C)C(=O)O)C5=O)C3=O)C=CC(C)(C)O2` [TSB-7, morellic acid]: the “IC50 (50% cell growth inhibition concentration)” value in the data set with HepG2 (liver cancer) was determined as 1.7 µg/mL; in the data set with MCF-7 (breast cancer) it was 0.98 µg/mL; with A549 (lung cancer) it was 0.76 µg/mL; in the data set on U937 (lymphoma cancer), 1.6 µg/mL; in the data set on HL-60 (leukemia), 1.2 µg/mL; in the data set on HT-29 (colon cancer), 2.8 µg/mL. Besides, the “IC50 (50% cell growth inhibition concentration)” value in data set [1] came to 0.88 µg/mL. Further, the “LC50 (50% cell destroying lethal concentration)” value in the data set with HepG2 (liver cancer) was 3.9 µg/mL; in the data set with MCF-7 (breast cancer) it was 6.2 µg/mL; in the data set on A549 (lung cancer) it was 3.4 µg/mL; with U937 (lymphoma cancer), 4.8 µg/mL; with HL-60 (leukemia), 5.6 µg/mL; with HT-29 (colon cancer) it was 7.2 µg/mL. For the same compound, the “LC50 (50% cell destroying lethal concentration)” value in data set [1] was 4.8 µg/mL.

As for `CC(C)=CCc1c2c(c(O)c3c1OC14C(=CC5CC1C(C)(C)OC4(C/C=C(\C)CO)C5=O)C3=O)C=CC(C)(C)O2` (stereo not shown) [TSB-6, isomorellinol], the “IC50 (50% cell growth inhibition concentration)” value amounted to 1.2 µg/mL with HepG2 (liver cancer); 0.90 µg/mL in the data set on MCF-7 (breast cancer); 2.0 µg/mL in the data set on A549 (lung cancer); 1.3 µg/mL in the data set with U937 (lymphoma cancer); 1.4 µg/mL in the data set on HL-60 (leukemia); 5.2 µg/mL in the data set with HT-29 (colon cancer). The “IC50 (50% cell growth inhibition concentration)” value in [1] was 1.5 µg/mL. For the same compound, the “LC50 (50% cell destroying lethal concentration)” value in the data set with HepG2 (liver cancer) turned out to be 3.0 µg/mL; in the data set on MCF-7 (breast cancer), 5.8 µg/mL; with A549 (lung cancer) it was 9.6 µg/mL; in the data set with U937 (lymphoma cancer) it was 3.8 µg/mL; in the data set on HL-60 (leukemia), 6.2 µg/mL; in the data set with HT-29 (colon cancer), 8.5 µg/mL. In data set [1], the “LC50 (50% cell destroying lethal concentration)” value was 9.3 µg/mL.

In the case of `CC(C)=CCc1c2c(c(O)c3c1OC14C(=CC5CC1C(C)(C)OC4(C/C=C(\C)C(=O)O)C5=O)C3=O)C=CC(C)(C)O2` (stereo not shown) [TSB-2, isomorellic acid], the “IC50 (50% cell growth inhibition concentration)” value with HepG2 (liver cancer) was 6.4 µg/mL; with MCF-7 (breast cancer), 9.0 µg/mL; in the data set on A549 (lung cancer), 1.3 µg/mL; with U937 (lymphoma cancer), 1.6 µg/mL; in the data set on HL-60 (leukemia) it was 2.3 µg/mL; in the data set on HT-29 (colon cancer) it was 6.9 µg/mL. The “IC50 (50% cell growth inhibition concentration)” value in data set [1] came out at 1.7 µg/mL. Besides, the “LC50 (50% cell destroying lethal concentration)” value with HepG2 (liver cancer) was determined as 33 µg/mL; with MCF-7 (breast cancer), 24 µg/mL; with A549 (lung cancer), 4.6 µg/mL; with U937 (lymphoma cancer), 6.1 µg/mL; in the data set on HL-60 (leukemia), 43 µg/mL; in the data set with HT-29 (colon cancer), 12 µg/mL. For the same compound, the “LC50 (50% cell destroying lethal concentration)” value in data set [1] came out at 22 µg/mL.

As to `C=C(C)[C@@H]1CC[C@]2(CO)CC[C@]3(C)[C@H](CC[C@@H]4[C@@]5(C)CC[C@H](O)C(C)(C)[C@@H]5CC[C@]43C)[C@@H]12` [TSB-0, betulin], in the data set with tumor/cancer cells, the “effect of inhibiting tumor/cancer cell growth (in words)” value is “may not be as effective as products TSB-2 to TSB-8”.

Turning to `CC(C)=CCc1c2c(c(O)c3c1O[C@@]14C(=C[C@H]5CC1C(C)(C)O[C@]4(CC=C(C)C)C5=O)C3=O)C=CC(C)(C)O2` [TSB-8, desoxymorellin], the “IC50 (50% cell growth inhibition concentration)” value with HepG2 (liver cancer) is 3.9 µg/mL; with MCF-7 (breast cancer), 5.3 µg/mL; in the data set on A549 (lung cancer) it was 4.8 µg/mL; in the data set on U937 (lymphoma cancer), 6.2 µg/mL; in the data set on HL-60 (leukemia), 6.5 µg/mL; in the data set on HT-29 (colon cancer) it was 6.7 µg/mL. In data set [1], the “IC50 (50% cell growth inhibition concentration)” value came out at 2.8 µg/mL. Further, the “LC50 (50% cell destroying lethal concentration)” value in the data set with HepG2 (liver cancer) was 31 µg/mL; with MCF-7 (breast cancer), 83 µg/mL; in the data set on A549 (lung cancer) it was 56 µg/mL; in the data set with U937 (lymphoma cancer), greater than 100 µg/mL; with HL-60 (leukemia), greater than 100 µg/mL; in the data set on HT-29 (colon cancer) it was 69 µg/mL. Moreover, in [1], the “LC50 (50% cell destroying lethal concentration)” value worked out at 40 µg/mL.

For `CO[C@@]12[C@H](COC(N)=O)C3=C(C(=O)C(C)=C(N)C3=O)N1C[C@@H]1N[C@@H]12` [mitomycin], the “Weight (g) (mean ± SEM)” value in [2] (Day 1) is given as 22.5 ± 0.6 g; in [2] (Day 5) it was 20.8 ± 0.3 g; in [2] (Day 9) it was 19.3 ± 0.4 g; in data set [2] (Day 13), 19.2 ± 0.3 g; in data set [2] (Day 17), 18.5 ± 0.2 g; in [2] (Day 21), 17.5 ± 0.2 g. Also, the entries for the “Weight (g) (mean ± SEM)” value in data set [2] (Day 25) and in [2] (Day 29) were 16.7 ± 0.2 g and 16.7 ± 0.4 g, respectively.

Take `CC(C)=CCC[C@]1(C)C=Cc2c(O)c3c(c(CC=C(C)C)c2O1)O[C@]12C(=C[C@@H]4C[C@H]1C(C)(C)O[C@@]2(C/C=C(\C)C(=O)O)C4=O)C3=O` [TSB-3, isogambogic acid]: the “IC50 (50% cell growth inhibition concentration)” value was found to be 1.2 µg/mL in the data set with HepG2 (liver cancer); 1.6 µg/mL in the data set on MCF-7 (breast cancer); 0.88 µg/mL with A549 (lung cancer); 0.82 µg/mL in the data set on U937 (lymphoma cancer); 0.97 µg/mL in the data set with HL-60 (leukemia); 6.4 µg/mL in the data set with HT-29 (colon cancer). The “IC50 (50% cell growth inhibition concentration)” value in data set [1] came to 1.1 µg/mL. The “LC50 (50% cell destroying lethal concentration)” value in the data set on HepG2 (liver cancer) turned out to be 1.9 µg/mL; with MCF-7 (breast cancer) it was 4.3 µg/mL; in the data set with A549 (lung cancer) it was 4.8 µg/mL; in the data set with U937 (lymphoma cancer), 3.1 µg/mL; in the data set on HL-60 (leukemia), 4.6 µg/mL; in the data set with HT-29 (colon cancer) it was 8.8 µg/mL. In data set [1], the “LC50 (50% cell destroying lethal concentration)” value was determined as 5.2 µg/mL.

Turning to `CC(C)=CCC[C@]1(C)C=Cc2c(O)c3c(c(CC=C(C)C)c2O1)O[C@]12C(=C[C@@H]4C[C@H]1C(C)(C)O[C@@]2(C/C=C(/C)C(=O)O)C4=O)C3=O` [TSB-5, gambogic acid], the “IC50 (50% cell growth inhibition concentration)” value in the data set with HepG2 (liver cancer) is 0.83 µg/mL; in the data set with MCF-7 (breast cancer) it was 0.83 µg/mL; with A549 (lung cancer) it was 0.8 µg/mL; in the data set on U937 (lymphoma cancer), 0.65 µg/mL; in the data set on HL-60 (leukemia) it was 0.50 µg/mL; with HT-29 (colon cancer), 4.5 µg/mL. For the same compound, the “IC50 (50% cell growth inhibition concentration)” value in data set [1] turned out to be 0.87 µg/mL. Besides, the “LC50 (50% cell destroying lethal concentration)” value stood at 2.7 µg/mL in the data set on HepG2 (liver cancer); 2.7 µg/mL in the data set on MCF-7 (breast cancer); 2.9 µg/mL in the data set on A549 (lung cancer); 3.1 µg/mL in the data set on U937 (lymphoma cancer); 5.2 µg/mL with HL-60 (leukemia); 7.1 µg/mL in the data set with HT-29 (colon cancer). For the same compound, the “LC50 (50% cell destroying lethal concentration)” value in data set [1] came to 3.6 µg/mL.
